From US6935334B2, “Enhancing therapeutic effectiveness of nitric oxide inhalation” (The General Hospital Corporation, priority 2000, dated 2005)

Legend:
NOS2 = experiment: Pulmonary cGMP levels after endotoxin challenge; assay type: in vivo, mouse; conditions: wild-type mice 7 hours after endotoxin challenge; L-NIL 5 mg/kg intraperitoneally; data not shown
[1] = test system: hypoxic pulmonary vasoconstriction (HPV) in mice; experiment: Redistribution of pulmonary blood flow (QLPA/QPA) after left mainstem bronchus occlusion (LMBO), murine HPV model; assay type: in vivo, mouse
Method: Group 3: endotoxin-treated+L-NIL. SV129/B6F1 wild-type mice (n=5) were injected intraperitoneally with 10 mg/kg E. coli 011B4 endotoxin dissolved in 0.2 mL saline. Three hours after the endotoxin challenge, mice were treated with L-NIL 5 mg/kg intraperitoneally. Studies were performed 22 hours after the endotoxin challenge. In additional SV129/B6F1 mice with (n=5) and without (n=4) a prior challenge of endotoxin (22 hours earlier), the acute response to an intravenous bolus of 5 mg/kg L-NIL administered during LMBO, was studied.
Group 4: prolonged exposure to 4 or 40 ppm NO. Saline-treated SV129 wild-type mice (n=5) and NOS2-deficient mice (n=5) breathed 40 ppm NO in air for 22 hours and were studied 1 hour after discontinuation of NO inhalation. SV129 wild-type mice (n=5) and NOS2-deficient mice (n=5) breathed 40 ppm NO in air for 22 hours after challenge with 10 mg/kg endotoxin intraperitoneally and were studied 1 hour after discontinuation of NO inhalation. Additional NOS2-deficient mice (n=4) breathed 4 ppm of NO in air for 22 hours after challenge with 10 mg/kg endotoxin intraperitoneally and were studied 1 hour after discontinuation of NO inhalation.
Experimental preparation. Mice were anesthetized by intraperitoneal injection of ketamine (0.1 mg/g body weight [bw]). Tracheostomy and arterial catheterization were performed as described previously (Steudel et al., 1997, Circ. Res. 81:34-41). A custom-made endotracheal tube (22G Angiocath; Becton Dickinson Healthcare Systems, Sandy, Utah, USA), combined with a 2 French Fogarty arterial embolization catheter (Baxter Healthcare Corp., Irvine, Calif., USA) was inserted into the trachea, with the balloon tip of the Fogarty catheter initially remaining in the trachea. Volume-controlled ventilation was initiated at a respiratory rate of 110-120 breaths per minute, at FiO2 1.0, a peak inspiratory pressure of 13 cm H2O, and a positive end-expiratory pressure level of 2-3 cm H2O. A right parasternal thoracotomy was performed, and a small-vessel ultrasonic flow probe (1RB; Transonic Instruments, Ithaca, N.Y.) was placed around the right pulmonary artery and fixed in position using a micromanipulator (X-tra Hand; TechniTool, Plymouth, Pa.). A 4-0 silk suture was positioned around the left main pulmonary artery to allow transient vascular occlusion. A pulmonary artery catheter (PE10) was inserted into the main pulmonary artery by direct puncture. In other experiments, a lower thoracic aortic flow probe was placed as reported previously (Steudel et al., supra).
Blood flow and pressure measurements. Mean systemic arterial pressure (PSA), mean pulmonary artery pressure (PPA), and in some studies PLA, were continuously monitored using biomedical amplifiers (Hewlett Packard 8805C, Palo Alto, Calif.; Siemens Sirecust 960, Danvers, Mass.). Mean lower thoracic aortic flow (QLTAF) and right pulmonary artery flow (QRPA) were measured with small vessel flow probes connected to a flowmeter (T106; Transonic Instruments). In some experiments, left ventricular end-diastolic pressure was measured with a 1.4 Fr. Millar catheter. The catheter was advanced through the right carotid artery into the left ventricle. […] All monitoring equipment was calibrated before each experiment.
Differential measurement of left and right pulmonary artery flow. To assess the contribution of QRPA and left pulmonary artery flow (QLPA) to total pulmonary artery flow (QPA), transient occlusion (90 seconds) of the left pulmonary artery (QLPA) was performed. QRPA during acute left pulmonary artery occlusion was considered to be QPA (i.e., cardiac output) and correlated closely (r2=0.88; y=0.95x+0.38; n=9) with QLTAF. QLPA was calculated as the difference between QRPA during left pulmonary artery occlusion (QPA) and QRPA with a patent left pulmonary artery (QLPA=QPA−QRPA). Absolute values of respective flows were recorded, and the fractional distribution of flow to the right and left lungs (QRPA/QPA and QLPA/QPA) was calculated. […]

[2] = saline-treated wild-type mice, L-NIL 5 mg/kg intravenously after LMBO

CC(=N)NCCCC[C@H](N)C(=O)O [L-NIL]
increase in pulmonary cGMP levels (NOS2): sufficient to prevent the increase in pulmonary cGMP levels
reduction of QLPA/QPA after LMBO ([1]; endotoxin-challenged (10 mg/kg i.p.) wild-type mice treated with L-NIL 5 mg/kg intraperitoneally 3 hours later, studied 22 hours after endotoxin): 53±10%
all other hemodynamic parameters after L-NIL injection [1, 2]: did not change
reduction of QLPA/QPA during LMBO after acute L-NIL [1, 2]: 56±3%
reduction of QLPA/QPA during LMBO after acute L-NIL ([1]; wild-type mice treated with endotoxin 22 hours earlier, L-NIL 5 mg/kg intravenously after LMBO): 24±18%
